# Assay results reported in US12391685B2, “Inhibitors of RNA-guided nuclease target binding and uses thereof” (THE BROAD INSTITUTE, INC., priority 2018, dated 2025).
# Read-outs that look alike come from different tables or passages of the source.
# What was measured:
# Type in all cases: cell-based, S. pyogenes
# [1] = molecular target: T1, dCas9-based transcription-activation complex (Streptococcus pyogenes serotype M1, UniProt Q99ZW2, D10A, form not given); experiment: dCas9-based transcription activation of HBG1 in HEK293FT cells (RT-qPCR); settings: for EC50: read-out: EC50, inhibition of the transcription activation complex
# T1 construct: "dSpCas9|Feng Zhang lab|NA"; The MS2-p65-HSF1(-GFP) effector is a separate chain recruited through MS2 aptamers in the sgRNA
# Protocol: Transcription activation experiments and quantitative RT-PCR analyses. HEK293FT cells were maintained in high glucose DMEM with glutamax (Life Technologies) and supplemented with 10% FBS (Life Technologies), 1% penicillin-streptomycin (Life Technologies) and 1 mM sodium pyruvate (Life Technologies). For transcription activation experiments, 20,000 cells/well were plated in a poly D-lysine-coated 96-well plate. The cells were transiently transfected with a 1:1:1 mass ratio of the dCas9 plasmid, MS2-P65-HSF1 effector plasmid and the sgRNA plasmid targeting the HBG1 gene or an RFP control plasmid. A total of 0.3 μg plasmid DNA was transfected using Lipofectamine 2000 (Life Technologies) according to manufacturer's protocol. Immediately after transfection, the cells were treated with an appropriate dose of the small-molecule inhibitors. A DMSO solution of compound (20 mM) was resuspended in the 10% FBS containing growth media and thoroughly mixedbefore adding to the cells. After 48 h the cells were lysed and 5 μL of the cell lysate was used to perform reverse transcription using the RevertAid RT Reverse Transcription Kit (Thermo Fischer Scientific) as described by Joung J. et al. qPCR reactions were performed to quantify RNA expression using the TaqMan probes (Life Technologies, HBG1/HBG2: Hs00361131_g1, ACTB: Hs01060665_g1) and TaqMan Fast Advanced Master Mix (Life Technologies) in 5 μL multiplexed reactions and 384-well format using the LightCycler 480 Instrument II (Roche). For each sample, four technical replicates were performed. Data were analyzed using the LightCycler 480 software (Roche) by the ΔΔCt method: Ct values for the gene of interest (HBG1) were normalized to Ct values for the housekeeping gene (ACTB), and fold-changes in the expression level of gene of interest were normalized to RFP-transfected control. The data is reported as mean±S.E.M. for technical replicates.
# [2] = molecular target: T2, SpCas9 (Streptococcus pyogenes serotype M1, UniProt Q99ZW2); experiment: eGFP-disruption assay in U2OS.eGFP.PEST cells; set-up: host or cells: U2OS.eGFP.PEST; settings: for inhibition at 15 µM / Average Inhibition activity / Inhibition activity Rep 1 / Inhibition activity Rep 2: screen of structural analogs of BRD7087, 15 μM compound, U2OS.eGFP.PEST cells
# T2 sequence (Q99ZW2 whole entry): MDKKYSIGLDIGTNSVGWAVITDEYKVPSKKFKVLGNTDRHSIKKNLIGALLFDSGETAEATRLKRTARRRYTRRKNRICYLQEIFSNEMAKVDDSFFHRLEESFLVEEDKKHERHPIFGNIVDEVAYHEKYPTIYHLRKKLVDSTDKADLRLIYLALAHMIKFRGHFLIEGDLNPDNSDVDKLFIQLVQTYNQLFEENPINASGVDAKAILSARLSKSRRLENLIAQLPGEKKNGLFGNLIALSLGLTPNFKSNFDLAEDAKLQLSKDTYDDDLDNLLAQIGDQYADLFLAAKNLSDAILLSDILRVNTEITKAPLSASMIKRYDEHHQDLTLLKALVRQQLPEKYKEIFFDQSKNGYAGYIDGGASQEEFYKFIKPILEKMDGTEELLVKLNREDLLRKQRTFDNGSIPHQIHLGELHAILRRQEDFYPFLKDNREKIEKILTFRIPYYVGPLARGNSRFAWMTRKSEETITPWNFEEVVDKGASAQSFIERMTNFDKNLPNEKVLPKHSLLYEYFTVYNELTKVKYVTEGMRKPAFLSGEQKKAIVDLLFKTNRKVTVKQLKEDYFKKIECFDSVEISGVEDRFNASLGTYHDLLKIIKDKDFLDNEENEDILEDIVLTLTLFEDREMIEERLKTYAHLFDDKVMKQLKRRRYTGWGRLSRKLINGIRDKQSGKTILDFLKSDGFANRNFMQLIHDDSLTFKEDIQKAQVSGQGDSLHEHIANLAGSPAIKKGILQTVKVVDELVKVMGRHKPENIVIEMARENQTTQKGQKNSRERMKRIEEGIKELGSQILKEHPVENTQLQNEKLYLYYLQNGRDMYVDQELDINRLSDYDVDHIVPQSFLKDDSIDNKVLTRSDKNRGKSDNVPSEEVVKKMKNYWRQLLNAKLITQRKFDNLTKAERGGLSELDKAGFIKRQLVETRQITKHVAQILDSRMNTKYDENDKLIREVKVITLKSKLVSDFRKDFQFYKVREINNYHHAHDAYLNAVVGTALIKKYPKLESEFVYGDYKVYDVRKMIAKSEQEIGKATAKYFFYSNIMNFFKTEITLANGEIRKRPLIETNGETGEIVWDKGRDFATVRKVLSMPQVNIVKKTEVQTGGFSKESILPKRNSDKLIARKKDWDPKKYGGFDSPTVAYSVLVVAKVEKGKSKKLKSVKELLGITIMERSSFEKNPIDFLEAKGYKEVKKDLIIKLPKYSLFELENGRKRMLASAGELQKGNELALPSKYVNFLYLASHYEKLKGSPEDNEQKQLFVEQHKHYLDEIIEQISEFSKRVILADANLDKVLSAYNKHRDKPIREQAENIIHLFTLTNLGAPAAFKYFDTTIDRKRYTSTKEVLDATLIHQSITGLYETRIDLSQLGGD
# Protocol: SpCas9 nuclease activity in eGFP-disruption assay. Approximately 200,000 U2OS.eGFP-PEST cells were nucleofected following two different methods either by nucleofecting plasmids or RNP using the SE Cell Line 4D-Nucleofector™ X Kit (Lonza) according to the manufacturer's protocol. In the plasmid nucleofection method, cells were nucleofected either with 440 ng of SpCas9 (Addgene Plasmid #43861) or 400 ng of SpCas9 along with 40 ng of sgRNA (pFYF1320 eGFP Site #1, Addgene Plasmid #47511). Cells nucleofected only with SpCas9-expressing plasmid were used as the transfection control. In the RNP nucleofection method, either […] SpCas9 or 20 pmol preformed SpCas9:gRNA (eGFP Site #1) complex were nucleofected. Approximately 20,000 transfected cells/well were plated in 4 replicates in a 96-well plate (Corning® 3904). Cells were incubated with the indicated amount of compound or DMSO for 24 h post transfection. A DMSO solution of compound (20 mM) was resuspended in the 10% FBS containing growth media and thoroughly mixed before adding to the cells. Cells were then fixed using 4% paraformaldehyde and imaged with the HCS NuclearMask™ Blue Stain (Life Technologies) as the nuclear counter-staining agent. Imaging was performed with an ImageXpress Micro automated microscope (Molecular Devices) at 10× magnification under three excitation channels (blue, green and red) acquiring nine sites per well. Images were analyzed using MetaXpress software and data were plotted using GraphPad Prism 6.
# The Z′-value was calculated using the equation (1), where σ1 and σ2 are the standard deviations of DMSO control and SpCas9:gRNA control respectively. μ1 and μ2 are the mean % GFP^− cell population for DMSO control and SpCas9:gRNA control, respectively.
# [3] = molecular target: T2, SpCas9; experiment: HiBiT assay in U2OS.eGFP.PEST cells; set-up: host or cells: U2OS.eGFP.PEST; settings: 24 h
# Protocol: HiBiT assay. For SpCas9 expression in cells, the previously described JDS246 plasmid was used (Kleinstiver et al., 2015b). ssODN donor DNA template with the HiBiT tag was purchased as single-stranded Ultramer DNA Oligonucleotides (IDT) and resuspended to 40 μM in nuclease-free water. For the assay, 2×10^5 cells were co-transfected with 300 ng Cas9 plasmid, 75 ng sgRNA plasmid and 100 ng ssODN using the DN-100 program of Lonza 4D nucleofector according to the manufacturer's protocols. For negative controls, either the sgRNA plasmid or the ssODN was omitted. 20,000 transfected cells were plated in each well of a 96-well plate (Corning 3904). Immediately after transfection, cells were treated with varying concentrations of BRD0539 or BRD3433 and incubated at 37° C. with 5% CO2. 24 h after transfection, the cells were washed once with PBS and kept in 80 μL PBS. An equal volume of the Nano-Glo HiBiT Lytic Reagent (Promega N3030), consisting of Nano-Glo HiBiT Lytic Buffer, Nano-Glo HiBiT Lytic Substrate, and LgBiT Protein, was added according to the manufacturer's protocol, and cells were incubated for 10 min at ambient temperature with shaking at 600 rpm (Schwinn et al., 2018a). The cells were then incubated for an additional 10 min without shaking at room temperature to allow equilibration of the HiBiT and LgBiT in the lysate. The lysate was then transferred to a white plate (Corning 3990) and luminescence was measured using an Envision plate reader (Perkin-Elmer) with 1 s of integration time.
# [4] = 24 h, read-out: Average Inhibition activity
# [5] = 24 h, read-out: Inhibition activity Rep 1
# [6] = 24 h, read-out: Inhibition activity Rep 2
SMILES,Average Inhibition activity ([2]; 24 h),Inhibition activity Rep 1 ([2]; 24 h),Inhibition activity Rep 2 ([2]; 24 h),further results
"CN1c2ccc(C#Cc3cccnc3)cc2[C@H]2[C@H](CCN2C(=O)Nc2cc(F)ccc2F)[C@@H]1CO [BRD0048, (3aS,4R,9bR)—N-(2,5-difluorophenyl)-4-(hydroxymethyl)-5-methyl-8-(pyridin-3-ylethynyl)-2,3,3a,4,5,9b-hexahydro-1H-pyrrolo[3,2-c]quinoline-1-carboxamide]",–,–,–,"EC50 [1]: 9 µM; inhibition at 15 µM [2, 4]: 76.4%; inhibition at 15 µM [2, 5]: 84.1%; inhibition at 15 µM [2, 6]: 68.7%"
"COc1cccc(-c2ccc3c(c2)[C@H]2[C@H](CCN2C(=O)Cc2ccncc2)[C@H](CO)N3C)c1 [BRD3433, 1-((3aS,4R,9bR)-4-(hydroxymethyl)-8-(3-methoxyphenyl)-5-methyl-2,3,3a,4,5,9b-hexahydro-1H-pyrrolo[3,2-c]quinolin-1-yl)-2-(pyridin-4-yl) ethan-1-one]",–,–,–,"inhibition of SpCas9 in the HiBiT assay (in words) [3]: dose-dependent inhibition; EC50 ([2]; EC50, dose-dependent inhibition of SpCas9, U2OS.eGFP.PEST cells, 24 h, tested from 2.8-17.3 μM): 9.3 µM; improvement in potency over BRD7087 ([2]; eGFP-disruption assay): 1.8 fold; EC50 ([2]; eGFP-disruption assay, read-out: apparent EC50): 11 µM; inhibition at 15 µM [2, 4]: 78.6%; inhibition at 15 µM [2, 5]: 82.2%; inhibition at 15 µM [2, 6]: 74.9%"
"CN1c2ccc(C#Cc3cccnc3)cc2[C@@H]2[C@@H](CCN2C(=O)C2CCCCC2)[C@H]1CO [BRD20322, Cyclohexyl((3aR,4S,9bS)-4-(hydroxymethyl)-5-methyl-8-(pyridin-3-ylethynyl)-2,3,3a,4,5,9b-hexahydro-1H-pyrrolo[3,2-c]quinolin-1-yl) methanone]",–,–,–,"inhibition of transcriptional activation ([1]; 20 μM): 89%; EC50 [1]: 12.2 µM; inhibition at 15 µM [2, 4]: 53.5%; inhibition at 15 µM [2, 5]: 47.6%; inhibition at 15 µM [2, 6]: 59.4%"
O=C(C1CCCCC1)N1CC[C@@H]2[C@H](CO)Nc3ccc(C#Cc4ccc(F)cc4)cc3[C@@H]21 [BRD-K72901141],49.5,53.2,45.9,–
COc1ccccc1NC(=O)N1CC[C@@H]2[C@H]1c1cc(C#Cc3cccc(F)c3)ccc1N(C)[C@@H]2CO [BRD-K77165899],53.5,47.0,59.9,–
O=C(c1ccc(F)cc1)N1CC[C@@H]2[C@H]1c1cc(C#Cc3ccccc3F)ccc1N[C@@H]2CO [BRD-K79906422],51.1,51.3,50.9,–
CN1c2ccc(-c3ccccc3F)cc2[C@@H]2[C@@H](CCN2C(=O)NC2CCCCC2)[C@H]1CO [BRD-K80765942],50.0,50.5,49.6,–
C/C=C/c1ccc2c(c1)[C@H]1[C@H](CCN1C(=O)c1ccc(F)cc1)[C@H](CO)N2 [BRD-K81261525],74.3,71.3,77.4,–
CN1c2ccc(C#Cc3ccc(F)cc3)cc2[C@@H]2[C@@H](CCN2C(=O)CN2CCOCC2)[C@H]1CO [BRD-K82266131],56.9,51.7,62.1,–
COc1ccccc1C#Cc1ccc2c(c1)[C@H]1[C@H](CCN1C(=O)c1cccc(F)c1)[C@H](CO)N2 [BRD-K83261893],45.7,47.1,44.3,–
COc1ccc(S(=O)(=O)N2CC[C@H]3[C@@H](CO)N(C)c4ccc(C#Cc5ccccc5OC)cc4[C@H]32)cc1 [BRD-K83448282],45.7,46.7,44.6,–
CN(C)C(=O)c1cccc(-c2ccc3c(c2)[C@@H]2[C@@H](CCN2C(=O)c2ccc4c(c2)OCO4)[C@@H](CO)N3)c1 [BRD-K83829793],53.1,61.0,45.2,–
O=C(C1CCCCC1)N1CC[C@@H]2[C@H]1c1cc(C#Cc3ccc(F)cc3)ccc1N[C@@H]2CO [BRD-K88933335],45.7,47.8,43.7,–
CN1c2ccc(C#Cc3cccnc3)cc2[C@H]2[C@H](CCN2C(=O)C2CCCCC2)[C@@H]1CO [BRD-K89354425],82.0,85.4,78.7,–
OC[C@@H]1Nc2ccc(-c3ccccc3)cc2[C@@H]2[C@H]1CCN2Cc1ccc(F)cc1 [BRD-K90247032],49.3,47.6,51.1,–
O=C(c1ccccc1)N1CC[C@@H]2[C@H]1c1cc(C#CC3CCCCC3)ccc1N[C@@H]2CO [BRD-K92041481],68.3,57.8,78.8,–
COc1cccc(S(=O)(=O)N2CC[C@H]3[C@@H](CO)N(C)c4ccc(C#Cc5cccnc5)cc4[C@H]32)c1 [BRD-K92333822],55.1,53.1,57.1,–
O=C(c1cccc(F)c1)N1CC[C@@H]2[C@H](CO)Nc3ccc(-c4ccccc4)cc3[C@@H]21 [BRD-K94204229],57.0,47.5,66.6,–
CN1c2ccc(-c3ccc(F)cc3)cc2[C@H]2[C@H](CCN2S(=O)(=O)c2cccc(F)c2)[C@@H]1CO [BRD-K98925777],49.4,53.6,45.2,–
Cc1cccc(S(=O)(=O)N2CCC3C(CO)Nc4ccc(-c5ccccc5F)cc4C32)c1 (centres unmarked) [Compound 4],–,–,–,"decrease of activity with respect to BRD0539 ([2]; structural analogs of BRD0539, R2=a, R1 varied): 47%"
